Key:
Experiment in all cases: Example B2 herbicidal action, post-emergence, pots in glasshouse, damage score 0-10
Assay type in all cases: in vivo
Conditions in all cases: application post-emergence, rate 1000 g/ha, evaluated after 13 days
Setaria faberi = system: Setaria faberi
Method in brief: (§1)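 Evaluation took place 13 days post-spray. Treatment used an acetone/water (50:50), 0.5% Tween 20 formulation applied to 8-day-old potted plants, held at 24/16 °C with 14 h light, 65% humidity and twice-daily watering.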

Echinochloa crus-galli = system: Echinochloa crus-galli
Method in brief: as §1

Solanum nigrum = system: Solanum nigrum
Method in brief: as §1

Ipomea hederaceae = system: Ipomea hederaceae
Method in brief: as §1

Amaranthus retroflexus = system: Amaranthus retroflexus
Method in brief: as §1

Structure (SMILES) | SETFA damage score (10=total damage to plant; 0=no damage to plant) (Setaria faberi) | ECHCG damage score (10=total damage to plant; 0=no damage to plant) (Echinochloa crus-galli) | SOLNI damage score (10=total damage to plant; 0=no damage to plant) (Solanum nigrum) | IPOHE damage score (10=total damage to plant; 0=no damage to plant) (Ipomea hederaceae) | AMARE damage score (10=total damage to plant; 0=no damage to plant) (Amaranthus retroflexus)
CCN1c2nccnc2C(O)=C(c2cccc(C(F)(F)F)c2)S1(=O)=O [Compound D3] | 0 | 1 | 1 | 1 | 10
Cc1ccc(C(F)(F)F)c(C2=C(O)c3nccnc3N(CC(F)F)S2(=O)=O)c1 [Compound D41] | 2 | 1 | 10 | 9 | 9
CN1c2nccnc2C(O)=C(c2c(Cl)ccc(Cl)c2Cl)S1(=O)=O [Compound D47] | 1 | 4 | 10 | 8 | 8
CC(C)(C)C(=O)OC1=C(c2ccc(-c3ccc(Cl)cc3F)cc2Cl)S(=O)(=O)N(CC(F)F)c2nccnc21 [Compound C142] | 0 | 1 | 6 | 3 | 4
O=C(OC1=C(c2c(Cl)cccc2C(F)(F)F)S(=O)(=O)N(CC(F)F)c2nccnc21)Sc1ccccc1 [Compound C125] | 8 | 8 | 9 | 8 | 9
CC(C)C(=O)OC1=C(c2c(Cl)ccc(Cl)c2C(F)(F)F)S(=O)(=O)N(CC(F)F)c2nccnc21 [Compound C53] | 5 | 8 | 5 | 4 | 8
CC(C)(C)C(=O)OC1=C(c2cc(Cl)ccc2C(F)(F)F)S(=O)(=O)N(CC(F)F)c2nccnc21 [Compound C111] | 6 | 6 | 9 | 9 | 8
O=S1(=O)C(c2ccc(I)cc2Cl)=C(O)c2nccnc2N1CC(F)F [Compound D59] | 1 | 3 | 8 | 4 | 4
CC(C)C(=O)OC1=C(c2ccccc2OC(F)(F)F)S(=O)(=O)N(CC(F)F)c2nccnc21 [Compound C22] | 4 | 7 | 10 | 9 | 10
CCSC(=O)OC1=C(c2cc(C(F)(F)F)ccc2Cl)S(=O)(=O)N(CC)c2nccnc21 [Compound C87] | 0 | 5 | 10 | 9 | 7
O=S1(=O)C(c2c(F)ccc(Br)c2Cl)=C(O)c2nccnc2N1CC(F)F [Compound D14] | 5 | 7 | 9 | 9 | 9
CCSC(=O)OC1=C(c2c(F)ccc(Cl)c2Cl)S(=O)(=O)N(CC(F)F)c2nccnc21 [Compound C32] | 1 | 7 | 8 | 9 | 8
CCSC(=O)OC1=C(c2c(F)ccc(Br)c2Cl)S(=O)(=O)N(CC(F)F)c2nccnc21 [Compound C107] | 3 | 5 | 7 | 6 | 5

From US8133849B2, “Herbicidal compounds” (Syngenta Limited, priority 2007, dated 2012)
